From patent publication US20230085307A1, “PYRIDAZINONE COMPOUND AND HERBICIDE” (NISSAN CHEMICAL CORPORATION, priority 2019, published 2023)

Experiments:
barnyard grass [1] = assay: Test Example 3: herbicidal effect by foliage application, Wagner pot (Table 18, symbol H); assay type: in vivo, barnyard grass (Echinochloa crus-galli)
Procedure, shortened: (§1)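 Plants were sown in alluvial soil held under 0.1–0.5 cm standing water and grown 14 days in a greenhouse at 25–30 °C. An emulsifiable formulation, water-diluted to the set dose, was then sprayed onto the foliage, and effects were scored three weeks later using previously defined criteria.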

oval-leafed pondweed = assay: Test Example 1: herbicidal activity, application before weed generation under submerged conditions (Table 16, symbol C); assay type: in vivo, oval-leafed pondweed (Monochoria vaginalis); conditions: 320 g/ha applied herbicide
Source text: (§2) [Test Example 1] Herbicidal Activity Test by Application before Weed Generation under Submerged Conditions After alluvial soil was placed into 1/10000 are of Wagner pot, water was poured and mixed to form a submerged condition having a water depth of 4 cm. Seeds of late watergrass, Japanese bulrush, and oval-leafed pondweed were sowed in a mixed manner in the aforementioned pot, and then 2.5 leaf stage rice plant seedlings were transplanted thereto. On the day of sowing seeds, the emulsion agent of the compound of the present invention prepared according to Formulation Example 2 was diluted with water so as to achieve a predetermined herbicide amount, and the diluted emulsion agent was applied to the surface of the water. The pot was placed in a greenhouse at 25° C. to 30° C. for growth of the plants. Three weeks after the herbicide application, the effect of the herbicide on each plant was evaluated according to the following criteria. Evaluation Criteria 5: Herbicidal rate of 90% or more (almost completely withered) 4: Herbicidal rate of 70% or more and less than 90% 3: Herbicidal rate of 40% or more and less than 70% 2: Herbicidal rate of 20% or more and less than 40% 1: Herbicidal rate of 5% or more and less than 20% 0: Herbicidal rate of 5% or less (almost no effect)

Chinese sprangletop = assay: Test Example 3: herbicidal effect by foliage application, Wagner pot (Table 18, symbol D); assay type: in vivo, chinese sprangletop (Leptochloa chinensis)
Procedure, shortened: as §1

rice flat sedge = assay: Test Example 3: herbicidal effect by foliage application, Wagner pot (Table 18, symbol E); assay type: in vivo, rice flat sedge (Cyperus iria)
Procedure, shortened: as §1

late watergrass = assay: Test Example 1: herbicidal activity, application before weed generation under submerged conditions (Table 16, symbol A); assay type: in vivo, late watergrass (Echinochloa oryzicola)
Source text: as §2

Japanese bulrush = assay: Test Example 1: herbicidal activity, application before weed generation under submerged conditions (Table 16, symbol B); assay type: in vivo, Japanese bulrush (Schoenoplectus juncoides)
Source text: as §2

southern crabgrass [2] = assay: Test Example 4: herbicidal effect by soil treatment (Table 19, symbol F); assay type: in vivo, southern crabgrass (Digitaria ciliaris); conditions: amount of applied herbicide 320 g/ha
Procedure, shortened: (§3)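 Scoring uses the grading scale of an earlier test, three weeks post-application. Treatment consists of spraying a diluted emulsion formulation across the surface of sterilized diluvial soil in which seeds are buried near 1.5 cm deep; boxes are kept in a greenhouse between 25° C. and 30° C.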

green foxtail [3] = assay: Test Example 5: herbicidal effect by foliage application, plastic box (Table 20, symbol G); assay type: in vivo, green foxtail (Setaria viridis); conditions: foliage application, 320 g/ha, three weeks after application
Procedure, shortened: (§4)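 Post-emergence foliar test in sterilized diluvial soil. Compound applied as water-diluted emulsion at a predetermined rate to 14-day-old plants; evaluation at three weeks.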

lambsquarters [4] = assay: Test Example 5: herbicidal effect by foliage application, plastic box (Table 20, symbol O); assay type: in vivo, lambsquarters (Chenopodium album); conditions: foliage application, 320 g/ha, three weeks after application
Procedure, shortened: as §4

barnyard grass [5] = assay: Test Example 4: herbicidal effect by soil treatment (Table 19, symbol H); assay type: in vivo, barnyard grass (Echinochloa crus-galli); conditions: amount of applied herbicide 320 g/ha
Procedure, shortened: as §3

wild oat [6] = assay: Test Example 5: herbicidal effect by foliage application, plastic box (Table 20, symbol I); assay type: in vivo, wild oat (Avena fatua); conditions: foliage application, 320 g/ha, three weeks after application
Procedure, shortened: as §4

windgrass [7] = assay: Test Example 4: herbicidal effect by soil treatment (Table 19, symbol L); assay type: in vivo, windgrass (Apera spica-venti); conditions: amount of applied herbicide 320 g/ha
Procedure, shortened: as §3

Italian ryegrass [8] = assay: Test Example 4: herbicidal effect by soil treatment (Table 19, symbol K); assay type: in vivo, Italian ryegrass (Lolium multiflorum); conditions: amount of applied herbicide 320 g/ha
Procedure, shortened: as §3

redroot pigweed [9] = assay: Test Example 5: herbicidal effect by foliage application, plastic box (Table 20, symbol N); assay type: in vivo, redroot pigweed (Amaranthus retroflexus); conditions: foliage application, 320 g/ha, three weeks after application
Procedure, shortened: as §4

velvetleaf [10] = assay: Test Example 5: herbicidal effect by foliage application, plastic box (Table 20, symbol M); assay type: in vivo, velvetleaf (Abutilon theophrasti); conditions: foliage application, 320 g/ha, three weeks after application
Procedure, shortened: as §4

chickweed [11] = assay: Test Example 5: herbicidal effect by foliage application, plastic box (Table 20, symbol P); assay type: in vivo, common chickweed (Stellaria media); conditions: foliage application, 320 g/ha, three weeks after application
Procedure, shortened: as §4

wild oat [12] = assay: Test Example 4: herbicidal effect by soil treatment (Table 19, symbol I); assay type: in vivo, wild oat (Avena fatua); conditions: amount of applied herbicide 320 g/ha
Procedure, shortened: as §3

green foxtail [13] = assay: Test Example 4: herbicidal effect by soil treatment (Table 19, symbol G); assay type: in vivo, green foxtail (Setaria viridis); conditions: amount of applied herbicide 320 g/ha
Procedure, shortened: as §3

blackgrass [14] = assay: Test Example 4: herbicidal effect by soil treatment (Table 19, symbol J); assay type: in vivo, blackgrass (Alopecurus myosuroides); conditions: amount of applied herbicide 320 g/ha
Procedure, shortened: as §3

persian speedwell [15] = assay: Test Example 4: herbicidal effect by soil treatment (Table 19, symbol R); assay type: in vivo, Persian speedwell (Veronica persica); conditions: amount of applied herbicide 320 g/ha
Procedure, shortened: as §3

windgrass [16] = assay: Test Example 5: herbicidal effect by foliage application, plastic box (Table 20, symbol L); assay type: in vivo, windgrass (Apera spica-venti); conditions: foliage application, 320 g/ha, three weeks after application
Procedure, shortened: as §4

Italian ryegrass [17] = assay: Test Example 5: herbicidal effect by foliage application, plastic box (Table 20, symbol K); assay type: in vivo, Italian ryegrass (Lolium multiflorum); conditions: foliage application, 320 g/ha, three weeks after application
Procedure, shortened: as §4

southern crabgrass [18] = assay: Test Example 5: herbicidal effect by foliage application, plastic box (Table 20, symbol F); assay type: in vivo, southern crabgrass (Digitaria ciliaris); conditions: foliage application, 320 g/ha, three weeks after application
Procedure, shortened: as §4

velvetleaf [19] = assay: Test Example 4: herbicidal effect by soil treatment (Table 19, symbol M); assay type: in vivo, velvetleaf (Abutilon theophrasti); conditions: amount of applied herbicide 320 g/ha
Procedure, shortened: as §3

blackgrass [20] = assay: Test Example 5: herbicidal effect by foliage application, plastic box (Table 20, symbol J); assay type: in vivo, blackgrass (Alopecurus myosuroides); conditions: foliage application, 320 g/ha, three weeks after application
Procedure, shortened: as §4

chickweed [21] = assay: Test Example 4: herbicidal effect by soil treatment (Table 19, symbol P); assay type: in vivo, common chickweed (Stellaria media); conditions: amount of applied herbicide 320 g/ha
Procedure, shortened: as §3

barnyard grass [22] = assay: Test Example 5: herbicidal effect by foliage application, plastic box (Table 20, symbol H); assay type: in vivo, barnyard grass (Echinochloa crus-galli); conditions: foliage application, 320 g/ha, three weeks after application
Procedure, shortened: as §4

persian speedwell [23] = assay: Test Example 5: herbicidal effect by foliage application, plastic box (Table 20, symbol R); assay type: in vivo, Persian speedwell (Veronica persica); conditions: foliage application, 320 g/ha, three weeks after application
Procedure, shortened: as §4

lambsquarters [24] = assay: Test Example 4: herbicidal effect by soil treatment (Table 19, symbol O); assay type: in vivo, lambsquarters (Chenopodium album); conditions: amount of applied herbicide 320 g/ha
Procedure, shortened: as §3

redroot pigweed [25] = assay: Test Example 4: herbicidal effect by soil treatment (Table 19, symbol N); assay type: in vivo, redroot pigweed (Amaranthus retroflexus); conditions: amount of applied herbicide 320 g/ha
Procedure, shortened: as §3

[26] = amount of applied herbicide 320 g/ha

With `CC[S+]([O-])Cc1ccc(-c2sc3ccc(F)cc3c2-c2c(O)c(C)nn(C)c2=O)cc1` (centres unmarked) [2-333] the “herbicidal effect on H: barnyard grass” value (barnyard grass [1]; [26]) was 5 (Herbicidal rate of 90% or more (almost completely withered)), the “Herbicidal effect on C: oval-leafed pondweed (grade 0-5)” value (oval-leafed pondweed) was 0 (Herbicidal rate of 5% or less (almost no effect)) and the “herbicidal effect on D: Chinese sprangletop” value (Chinese sprangletop; [26]) was 2 (Herbicidal rate of 20% or more and less than 40%). For the same compound, the “herbicidal effect on E: rice flat sedge” value (rice flat sedge; [26]) was 5 (Herbicidal rate of 90% or more (almost completely withered)), the “Herbicidal effect on A: late watergrass (grade 0-5)” value (late watergrass; 320 g/ha applied herbicide) was 2 (Herbicidal rate of 20% or more and less than 40%) and the “Herbicidal effect on B: Japanese bulrush (grade 0-5)” value (Japanese bulrush; 320 g/ha applied herbicide) was 0 (Herbicidal rate of 5% or less (almost no effect)).

In the case of `COc1ccccc1-c1sc2cc(OS(=O)(=O)N(C)C)ccc2c1-c1c(O)c(C)nn(C)c1=O` [3-134], the “Herbicidal effect by soil treatment, F: southern crabgrass” value (southern crabgrass [2]) is reported as 0 (Herbicidal rate of 5% or less (almost no effect)), the “herbicidal effect on barnyard grass (H)” value (barnyard grass [1]; 320 g/ha) is reported as 3 (Herbicidal rate of 40% or more and less than 70%) and the “G: green foxtail, herbicidal effect grade” value (green foxtail [3]) is reported as 3 (Herbicidal rate of 40% or more and less than 70%). For the same compound, the “O: lambsquarters, herbicidal effect grade” value (lambsquarters [4]) was 3 (Herbicidal rate of 40% or more and less than 70%), the “Herbicidal effect by soil treatment, H: barnyard grass” value (barnyard grass [5]) was 0 (Herbicidal rate of 5% or less (almost no effect)) and the “I: wild oat, herbicidal effect grade” value (wild oat [6]) was 2 (Herbicidal rate of 20% or more and less than 40%). The “Herbicidal effect by soil treatment, L: windgrass” value (windgrass [7]) was 5 (Herbicidal rate of 90% or more (almost completely withered)), the “Herbicidal effect by soil treatment, K: Italian ryegrass” value (Italian ryegrass [8]) was 4 (Herbicidal rate of 70% or more and less than 90%) and the “N: redroot pigweed, herbicidal effect grade” value (redroot pigweed [9]) was 4 (Herbicidal rate of 70% or more and less than 90%). For the same compound, the “M: velvetleaf, herbicidal effect grade” value (velvetleaf [10]) was 3 (Herbicidal rate of 40% or more and less than 70%), the “P: chickweed, herbicidal effect grade” value (chickweed [11]) was 5 (Herbicidal rate of 90% or more (almost completely withered)) and the “Herbicidal effect by soil treatment, I: wild oat” value (wild oat [12]) was 0 (Herbicidal rate of 5% or less (almost no effect)). The “herbicidal effect on Chinese sprangletop (D)” value (Chinese sprangletop; 320 g/ha) was 4 (Herbicidal rate of 70% or more and less than 90%), the “Herbicidal effect by soil treatment, G: green foxtail” value (green foxtail [13]) was 0 (Herbicidal rate of 5% or less (almost no effect)) and the “Herbicidal effect by soil treatment, J: blackgrass” value (blackgrass [14]) was 4 (Herbicidal rate of 70% or more and less than 90%). The “Herbicidal effect by soil treatment, R: persian speedwell” value (persian speedwell [15]) was 3 (Herbicidal rate of 40% or more and less than 70%), the “L: windgrass, herbicidal effect grade” value (windgrass [16]) was 5 (Herbicidal rate of 90% or more (almost completely withered)) and the “K: Italian ryegrass, herbicidal effect grade” value (Italian ryegrass [17]) was 4 (Herbicidal rate of 70% or more and less than 90%). For the same compound, the “F: southern crabgrass, herbicidal effect grade” value (southern crabgrass [18]) was 4 (Herbicidal rate of 70% or more and less than 90%), the “Herbicidal effect by soil treatment, M: velvetleaf” value (velvetleaf [19]) was 1 (Herbicidal rate of 5% or more and less than 20%) and the “J: blackgrass, herbicidal effect grade” value (blackgrass [20]) was 4 (Herbicidal rate of 70% or more and less than 90%). For the same compound, the “herbicidal effect on rice flat sedge (E)” value (rice flat sedge; 320 g/ha) was 3 (Herbicidal rate of 40% or more and less than 70%), the “Herbicidal effect by soil treatment, P: chickweed” value (chickweed [21]) was 1 (Herbicidal rate of 5% or more and less than 20%) and the “H: barnyard grass, herbicidal effect grade” value (barnyard grass [22]) was 0 (Herbicidal rate of 5% or less (almost no effect)). The “R: persian speedwell, herbicidal effect grade” value (persian speedwell [23]) was 5 (Herbicidal rate of 90% or more (almost completely withered)), the “Herbicidal effect by soil treatment, O: lambsquarters” value (lambsquarters [24]) was 3 (Herbicidal rate of 40% or more and less than 70%) and the “Herbicidal effect, A: late watergrass” value (late watergrass; [26]) was 3 (Herbicidal rate of 40% or more and less than 70%). For the same compound, the “Herbicidal effect by soil treatment, N: redroot pigweed” value (redroot pigweed [25]) was 5 (Herbicidal rate of 90% or more (almost completely withered)) and the “Herbicidal effect, B: Japanese bulrush” value (Japanese bulrush; [26]) was 4 (Herbicidal rate of 70% or more and less than 90%).
